Measured values reported in patent publication US20180111949A1, “NOVEL INDUSTRIAL CRYSTALLIZATION METHOD OF CEFUROXIME SODIUM AND PREPARATION THEREOF” (HAINAN LINGKANG PHARMACEUTICAL CO., LTD, priority 2016, published 2018).
Values joined by “and” are separate entries in the source; they are usually repeats but may differ in a detail not shown here. Equal entries are not always repeated.

How the values were obtained:
[1] = cited from earlier work
[2] = Flowability test, angle of repose by funnel method; format: physicochemical; conditions: refined Cefuroxime Sodium prepared in Example 1
Description: In order to examine the flowability of the refined Cefuroxime Sodium prepared in Example 1, the angle of repose was measured by a funnel method. Test method: The particles were placed in a fixed funnel, and were […] freely to a horizontal plane to form a disk-shaped stacked body with a bottom radius of r, and the height of the stacked body was measured as H. The results were calculated according to the equation of tan θ=H/r and were shown in the following table: […]

[3] = Bacterial endotoxin, quality research per Chinese Pharmacopoeia 2010 Part 2; conditions: compliance with pharmacopoeia standard
Description: (§1) Referring to the quality standard of the raw material in “Part 2 of Chinese Pharmacopoeia 2010 Edition”, the quality research on crystalline powder of Cefuroxime Sodium was conducted in Example 1˜4 and Comparative Example 1, and the results were shown as follows: […]

[4] = pH, quality research per Chinese Pharmacopoeia 2010 Part 2; format: physicochemical; conditions: crystalline powder
Description: as §1

[5] = Color of the solution, quality research per Chinese Pharmacopoeia 2010 Part 2; format: physicochemical; conditions: compliance with pharmacopoeia standard
Description: as §1

[6] = Clarity of the solution, quality research per Chinese Pharmacopoeia 2010 Part 2; format: physicochemical; conditions: compliance with pharmacopoeia standard
Description: as §1

[7] = Abnormal toxicity, quality research per Chinese Pharmacopoeia 2010 Part 2; conditions: compliance with pharmacopoeia standard
Description: as §1

SMILES	Solubility in chloroform ([1]; chloroform)	Solubility in ethanol ([1]; ethanol)	Solubility in methanol ([1]; methanol)	Solubility in water ([1]; water)	Angle of repose θ, average value ([2]; average of three measurements)	Angle of repose θ ([2]; single measurements, funnel method)	Bacterial endotoxin [3]	pH [4]	Color of the solution [5]	Clarity of the solution [6]	Abnormal toxicity [7]
CO/N=C(\C(=O)N[C@@H]1C(=O)N2C(C(=O)[O-])=C(COC(N)=O)CS[C@H]12)c1ccco1.[Na+] [Cefuroxime Sodium, Sodium (6R, 7R)-7-[2-furyl (methoxyimino)acetylamino]-3-carbamoyloxymethyl-8-oxo-5-thia-1-azabicyclo [4.2.0]oct-2-ene-2-carboxylate]	insoluble	insoluble	slightly soluble	soluble	26.1°	25.9° and 26.1° and 26.2°	–	–	–	–	–
CO/N=C(\C(=O)N[C@@H]1C(=O)N2C(C(=O)[O-])=C(COC(N)=O)CS[C@H]12)c1ccco1.[Na+] [Example 1, Cefuroxime Sodium]	–	–	–	–	–	–	Compliance	pH = 7.3	Compliance	Compliance	Compliance
CO/N=C(\C(=O)N[C@@H]1C(=O)N2C(C(=O)[O-])=C(COC(N)=O)CS[C@H]12)c1ccco1.[Na+] [Example 2, Cefuroxime Sodium]	–	–	–	–	–	–	Compliance	pH = 7.5	Compliance	Compliance	Compliance
CO/N=C(\C(=O)N[C@@H]1C(=O)N2C(C(=O)[O-])=C(COC(N)=O)CS[C@H]12)c1ccco1.[Na+] [Comparative Example 1, Cefuroxime Sodium]	–	–	–	–	–	–	Compliance	pH = 7.5	–	Compliance	Compliance
CO/N=C(\C(=O)N[C@@H]1C(=O)N2C(C(=O)[O-])=C(COC(N)=O)CS[C@H]12)c1ccco1.[Na+] [Example 4, Cefuroxime Sodium]	–	–	–	–	–	–	Compliance	pH = 7.0	Compliance	Compliance	Compliance
CO/N=C(\C(=O)N[C@@H]1C(=O)N2C(C(=O)[O-])=C(COC(N)=O)CS[C@H]12)c1ccco1.[Na+] [Example 3, Cefuroxime Sodium]	–	–	–	–	–	–	Compliance	pH = 7.4	Compliance	Compliance	Compliance
